We go through 3 molecules from patent US20120189558A1, “ANTI-BACTERIAL COMPOSITIONS COMPRISING EXTRACTS OF EREMOPHILA LONGIFOLIA AND METHODS FOR USE OF SAME” (priority 2009, published 2012).

Experiment [1] deals with S. mutans biofilm. Nature of the experiment: S. mutans artificial biofilm assay. Format: cell-based, Streptococcus mutans. Particulars: 5 mg/ml, 1 hour treatment. The procedure:
(§1) Artificial biofilm assays were performed based on the method of Alviano et al. (2008). Non-stimulated saliva was collected from a healthy donor and 20 μL was placed on sterile 0.22 μm Millipore membrane disks of 13 mm diameter, previously placed over BHI agar plates. Plates were incubated for 48 hours at 37° C. After biofilm growth, the disks were collected and each disk was placed inside a bottle containing 3 ml of stem extract (5 mg/ml or 10 mg/ml in ethanol), Milli-Q distilled water or ethanol for 1 hour at 37° C. with gentle shaking. Then, the disks were briefly washed with Milli-Q distilled water to remove the plant extract and unbound bacterial cells, and the biofilm was extracted by vortexing the disks in 1 ml of BHI broth. Immediately, serial dilutions were performed and 100 μL of each dilution were spread on BHI agar. The plates were incubated in candle jars for 48 hours at 37° C. and a viable count was performed. An S. mutans artificial biofilm assay was performed by repeating the above method except that a pure ON culture of S. mutans was grown on the membrane disks instead of salivary bacteria. Both this assay and the salivary assay were performed in duplicate.

In experiment [2] the test system is Streptococcus mutans (969). Briefly: Plate-hole and disk diffusion assays. Particulars: S. mutans, 2 mg/ml positive control, mean +/- SD of three plate-hole and three disk diffusion assays. Format: cell-based. The procedure:
(§2) Plate-hole diffusion assays were used to test for antibacterial activity (Palombo and Semple, 2001). A pure colony of each culture was grown in BHI broth and 200 μL were added to 15 ml of molten BHI agar. The inoculated agar was gently mixed and transferred to a sterile petri dish. Once set and dried, a sterilised core-borer (6 mm diameter) was used to make wells in the agar, and 10 μL of plant extract were added into each well. One well on each plate was filled with neat solvent as a control. Disk diffusion assays were also used to test for antibacterial activity (Pennacchio et al., 2005). 10 μL of each extract and control were placed on sterile paper disks (6 mm diameter, Oxoid) and allowed to dry for 25 minutes. 100 μL of each overnight (ON) culture was spread on BHI agar and allowed to dry for 10 minutes. Disks were transferred to the agar surface. Both plate-hole and disk diffusion assays were incubated overnight at 37° C. in candle jars and were carried out in triplicate.
On the technique in general: Agar diffusion results depend on both activity and mobility in agar.

Experiment [3] deals with salivary bacteria biofilm. Briefly: Salivary bacteria artificial biofilm assay. It counts as cell-based, human. Particulars: 5 mg/ml, 1 hour treatment. As for the experimental part:
as §1

The test system of experiment [4] is S. sobrinus (6715-247). Nature of the experiment: Plate-hole and disk diffusion assays. It counts as cell-based, Streptococcus sobrinus. Particulars: 2 mg/ml positive control, mean +/- SD of three plate-hole and three disk diffusion assays. As for the experimental part: as §2
In experiment [5] the test system is a selection of Streptococcus species. Particulars: isolated active compound; Hu et al., 2000; cited from earlier work.
For experiment [6], the system named is Stenotrophomonas maltophila - antibiotic-resistant clinical isolate. Briefly: MIC by CLSI microbroth dilution. It counts as cell-based, Stenotrophomonas maltophilia. Particulars: Stenotrophomonas sp. LMG 10879; isolate GN13. As for the experimental part: (§3) A study was carried out to determine the minimum inhibitory concentration (MIC) for Emubush extract and a comparator against a panel of isolates using Clinical and Laboratory Standards Institute (CLSI) broth methodology.
(§4) The Emubush extract was prepared by dissolving 95.2 mg in ethanol. The solvent was then evaporated off and the material re-dissolved in ethanol at room temperature.
(§5) MIC was determined by microbroth dilution following CLSI methodology. [CLSI Methods for Dilution Antimicrobial Susceptibility Tests for Bacteria That Grow Aerobically; Approved Standard-Eighth Edition. CLSI Document M07-A8. CLSI, Wayne, Pa. 19087-1898, USA, 2009].

The test system of experiment [7] is Staphylococcus aureus ATCC 29213 - antibiotic-susceptible type strain. Nature of the experiment: MIC by CLSI microbroth dilution. Format: cell-based. Particulars: ATCC29213, isolate GP1. As for the experimental part:
as §3, §4, §5

Experiment [8] relates to Pseudomonas aeruginosa - multi-drug resistant clinical isolate. Nature of the experiment: MIC by CLSI microbroth dilution. Particulars: isolate GN11. It counts as cell-based. The procedure: as §3, §4, §5
Background: Broth dilution looks for growth in wells or tubes with falling amounts of substance.

For experiment [9], the system named is Streptococcus pyogenes - antibiotic-susceptible clinical isolate. Briefly: MIC by CLSI microbroth dilution. Format: cell-based. Particulars: isolate GP59. As for the experimental part:
as §3, §4, §5

For experiment [10], the system named is Staphylococcus aureus ATCC 43300 - methicillin-resistant type strain. Briefly: MIC by CLSI microbroth dilution. Format: cell-based. Particulars: ATCC43300, isolate GP3. As for the experimental part:
as §3, §4, §5

Experiment [11] has as its system Staphylococcus aureus - methicillin-resistant clinical isolate. Nature of the experiment: MIC by CLSI microbroth dilution. Format: cell-based. Particulars: isolate GP4. As for the experimental part: as §3, §4, §5
The test system of experiment [12] is Serratia marcescens - multi-drug resistant clinical isolate. Briefly: MIC by CLSI microbroth dilution. Format: cell-based. Particulars: isolate GN09. As for the experimental part: as §3, §4, §5
For experiment [13], the system named is Staphylococcus epidermidis - methicillin-resistant clinical isolate. Briefly: MIC by CLSI microbroth dilution. It counts as cell-based. Particulars: isolate GP8. As for the experimental part: as §3, §4, §5
The subject of experiment [14] is Streptococcus pneumoniae - multi-drug resistant clinical isolate. Briefly: MIC by CLSI microbroth dilution. Particulars: isolate GP24. Format: cell-based. As for the experimental part:
as §3, §4, §5

In experiment [15] the test system is Stenotrophomonas maltophilia - antibiotic-susceptible clinical isolate. Nature of the experiment: MIC by CLSI microbroth dilution. It counts as cell-based. Particulars: isolate GN12. The procedure:
as §3, §4, §5

Experiment [16] has as its system Serratia marcescens - antibiotic-susceptible clinical isolate. Briefly: MIC by CLSI microbroth dilution. It counts as cell-based. Particulars: isolate GN08. The procedure:
as §3, §4, §5

The test system of experiment [17] is Burkholderia cepacia - antibiotic-susceptible clinical isolate. Nature of the experiment: MIC by CLSI microbroth dilution. It counts as cell-based. Particulars: isolate GN14. The procedure:
as §3, §4, §5

Experiment [18] concerns Staphylococcus epidermidis - antibiotic susceptible clinical isolate. Nature of the experiment: MIC by CLSI microbroth dilution. Format: cell-based. Particulars: isolate GP7. As for the experimental part: as §3, §4, §5

Values after ≈ are worked out from the molar mass of the structure shown.

As for `[H]/N=C(\N/C(=N/[H])NCCCCCCNC(=N)NC(=N)Nc1ccc(Cl)cc1)Nc1ccc(Cl)cc1` [Chlorhexidine, chlorhexidine], the “reduction in viable biofilm cells” value in experiment [1] and in experiment [3] was “greatest reduction in viable biofilm bacteria” in each case. Moreover, the “mean diameter of the growth inhibition zone” value in experiment [2] was 22.1 +/− 0.6 mm; in [2] (listed as chlorhexidine), 22.1+/−0.6 mm; in [4] it was 20.5 +/− 0.6 mm; in experiment [4] (listed as chlorhexidine), 20.5+/−0.6 mm.

As for `COc1ccc2cc3[n+](cc2c1OC)CCc1cc2c(cc1-3)OCO2` [berberine], the MIC (as a rule, the lowest concentration that inhibits growth of the organism) in experiment [5] is 13 to 20 µg/mL.

Regarding `C[C@H]1COc2c(N3CCN(C)CC3)c(F)cc3c(=O)c(C(=O)O)cn1c23` [Levofloxacin], the minimal inhibitory concentration (MIC) in experiment [6] is 2 µg/mL (≈ 5.53 µM); in experiment [7] it was 0.25 µg/mL (≈ 0.692 µM); in [8] it was 4 µg/mL (≈ 11.1 µM); in experiment [9] it was 0.5 µg/mL (≈ 1.38 µM); in [10], 0.12 µg/mL (≈ 0.332 µM); in experiment [11], 0.12 µg/mL (≈ 0.332 µM). Besides, the MIC was 2 µg/mL (≈ 5.53 µM) in experiment [12]; 0.12 µg/mL (≈ 0.332 µM) in [13]; 1 µg/mL (≈ 2.77 µM) in experiment [14]; 0.12 µg/mL (≈ 0.332 µM) in experiment [15]; 0.06 µg/mL (≈ 0.166 µM) in experiment [16]; 1 µg/mL (≈ 2.77 µM) in experiment [17]. The same molecule showed a minimum inhibitory concentration (MIC) in [18] of 0.12 µg/mL (≈ 0.332 µM).
